This note sets out measurements from ChEMBL document CHEMBL4052759, “Discovery of DS79182026: A potent orally active hepcidin production inhibitor” (Bioorg Med Chem Lett, 2017).

Experiment [1] concerns the target Ribosomal protein S6 kinase alpha-1 (Homo sapiens) (UniProt Q15418). Description: Inhibition of RSK1 (unknown origin) at 0.078 uM relative to control.
The target of experiment [2] is T1, Serine/threonine-protein kinase D2 (Homo sapiens) (UniProt Q9BZL6).
T1 sequence (whole entry): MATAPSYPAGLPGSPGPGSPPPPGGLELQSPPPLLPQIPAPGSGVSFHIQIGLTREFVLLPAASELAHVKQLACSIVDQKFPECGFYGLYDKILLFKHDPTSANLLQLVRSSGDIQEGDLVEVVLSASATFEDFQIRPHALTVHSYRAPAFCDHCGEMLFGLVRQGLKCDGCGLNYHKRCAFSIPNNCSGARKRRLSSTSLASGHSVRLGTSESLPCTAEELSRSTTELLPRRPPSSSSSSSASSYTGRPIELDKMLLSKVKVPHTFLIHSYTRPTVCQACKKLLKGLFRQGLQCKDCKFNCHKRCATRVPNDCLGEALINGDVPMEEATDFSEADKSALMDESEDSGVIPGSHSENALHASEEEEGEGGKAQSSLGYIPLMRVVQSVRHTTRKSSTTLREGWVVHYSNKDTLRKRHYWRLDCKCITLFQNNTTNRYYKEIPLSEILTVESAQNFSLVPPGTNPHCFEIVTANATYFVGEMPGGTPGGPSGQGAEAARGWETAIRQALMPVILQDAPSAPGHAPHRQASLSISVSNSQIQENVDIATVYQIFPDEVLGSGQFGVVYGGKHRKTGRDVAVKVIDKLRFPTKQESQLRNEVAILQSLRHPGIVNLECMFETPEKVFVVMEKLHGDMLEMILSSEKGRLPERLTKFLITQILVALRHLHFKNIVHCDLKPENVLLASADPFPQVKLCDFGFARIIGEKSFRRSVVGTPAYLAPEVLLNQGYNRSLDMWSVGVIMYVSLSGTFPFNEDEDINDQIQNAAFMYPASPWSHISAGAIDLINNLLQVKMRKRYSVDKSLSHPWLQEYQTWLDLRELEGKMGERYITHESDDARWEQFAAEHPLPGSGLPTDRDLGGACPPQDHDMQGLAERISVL
The experiment in a line: Inhibition of PKD2 (unknown origin) at 0.078 uM relative to control.

Experiment [3] has as its target T2, Serine/threonine-protein kinase 3 (Homo sapiens) (UniProt Q13188).
T2 sequence (whole entry): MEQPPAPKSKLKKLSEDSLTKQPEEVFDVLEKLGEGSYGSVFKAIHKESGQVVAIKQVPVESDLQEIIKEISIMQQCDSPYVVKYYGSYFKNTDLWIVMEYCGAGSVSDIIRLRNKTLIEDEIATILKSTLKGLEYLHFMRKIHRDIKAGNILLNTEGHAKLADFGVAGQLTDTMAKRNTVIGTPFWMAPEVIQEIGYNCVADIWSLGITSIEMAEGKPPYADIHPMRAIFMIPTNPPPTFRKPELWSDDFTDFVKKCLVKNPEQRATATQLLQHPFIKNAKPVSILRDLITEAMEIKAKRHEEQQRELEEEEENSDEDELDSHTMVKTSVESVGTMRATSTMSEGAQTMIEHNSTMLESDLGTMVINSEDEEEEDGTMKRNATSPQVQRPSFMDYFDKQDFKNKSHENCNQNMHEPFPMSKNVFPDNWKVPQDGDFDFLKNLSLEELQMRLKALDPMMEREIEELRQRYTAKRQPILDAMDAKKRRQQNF
Description: Inhibition of MST2 (unknown origin) at 0.078 uM relative to control.

Experiment [4] deals with Death-associated protein kinase 1 (Homo sapiens) (UniProt P53355). Description: Inhibition of DAPK1 (unknown origin) at 0.49 uM relative to control.
Chain of Death-associated protein kinase 1 (Homo sapiens) (P53355 whole entry, looked up, canonical isoform): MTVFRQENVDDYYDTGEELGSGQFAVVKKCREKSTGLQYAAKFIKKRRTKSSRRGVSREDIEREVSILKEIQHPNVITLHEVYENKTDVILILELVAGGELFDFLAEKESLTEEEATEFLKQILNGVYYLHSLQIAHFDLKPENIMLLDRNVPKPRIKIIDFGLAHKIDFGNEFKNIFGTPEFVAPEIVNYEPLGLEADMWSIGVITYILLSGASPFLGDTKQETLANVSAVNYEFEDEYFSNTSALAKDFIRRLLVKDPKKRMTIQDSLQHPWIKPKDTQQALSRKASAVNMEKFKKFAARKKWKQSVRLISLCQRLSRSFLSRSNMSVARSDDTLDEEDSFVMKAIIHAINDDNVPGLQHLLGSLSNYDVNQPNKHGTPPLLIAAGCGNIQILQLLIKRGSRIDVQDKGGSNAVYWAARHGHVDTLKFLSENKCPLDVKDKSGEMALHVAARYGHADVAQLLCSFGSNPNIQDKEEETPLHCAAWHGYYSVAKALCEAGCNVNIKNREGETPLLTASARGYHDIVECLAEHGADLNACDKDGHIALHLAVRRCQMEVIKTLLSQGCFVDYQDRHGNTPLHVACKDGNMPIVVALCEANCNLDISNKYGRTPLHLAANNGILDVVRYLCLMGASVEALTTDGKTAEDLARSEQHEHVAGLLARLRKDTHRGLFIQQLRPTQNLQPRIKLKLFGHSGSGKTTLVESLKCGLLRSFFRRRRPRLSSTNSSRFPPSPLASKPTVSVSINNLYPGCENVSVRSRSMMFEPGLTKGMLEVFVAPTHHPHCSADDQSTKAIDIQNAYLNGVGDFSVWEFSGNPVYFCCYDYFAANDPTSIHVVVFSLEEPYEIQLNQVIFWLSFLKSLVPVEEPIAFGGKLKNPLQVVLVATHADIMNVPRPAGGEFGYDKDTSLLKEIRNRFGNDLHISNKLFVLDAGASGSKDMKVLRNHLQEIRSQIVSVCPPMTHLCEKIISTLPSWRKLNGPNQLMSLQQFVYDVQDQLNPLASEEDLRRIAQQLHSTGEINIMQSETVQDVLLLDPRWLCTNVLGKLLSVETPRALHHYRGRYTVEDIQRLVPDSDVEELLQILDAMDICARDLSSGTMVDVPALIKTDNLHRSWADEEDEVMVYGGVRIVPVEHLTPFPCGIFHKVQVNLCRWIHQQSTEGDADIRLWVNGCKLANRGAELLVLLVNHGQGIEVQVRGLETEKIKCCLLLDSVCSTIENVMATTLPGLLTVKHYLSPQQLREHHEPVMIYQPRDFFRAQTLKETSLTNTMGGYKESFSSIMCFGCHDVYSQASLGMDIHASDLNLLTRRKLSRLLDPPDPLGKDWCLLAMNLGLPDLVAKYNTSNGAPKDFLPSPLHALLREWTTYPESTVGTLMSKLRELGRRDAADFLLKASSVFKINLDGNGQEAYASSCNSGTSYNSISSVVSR
The target of experiment [5] is Casein kinase I isoform epsilon (Homo sapiens) (UniProt P49674). The experiment in a line: Inhibition of CK1-epsilon (unknown origin) at 0.49 uM relative to control.
Experiment [6] deals with Cyclin-dependent kinase 2 (Homo sapiens) (UniProt P24941). Description: Inhibition of CDK2 (unknown origin) at 0.49 uM relative to control.
The target in experiment [7] is RAF proto-oncogene serine/threonine-protein kinase (Homo sapiens) (UniProt P04049). The experiment in a line: Inhibition of c-Raf (unknown origin) at 0.49 uM relative to control.
Chain of RAF proto-oncogene serine/threonine-protein kinase (Homo sapiens) (P04049 whole entry): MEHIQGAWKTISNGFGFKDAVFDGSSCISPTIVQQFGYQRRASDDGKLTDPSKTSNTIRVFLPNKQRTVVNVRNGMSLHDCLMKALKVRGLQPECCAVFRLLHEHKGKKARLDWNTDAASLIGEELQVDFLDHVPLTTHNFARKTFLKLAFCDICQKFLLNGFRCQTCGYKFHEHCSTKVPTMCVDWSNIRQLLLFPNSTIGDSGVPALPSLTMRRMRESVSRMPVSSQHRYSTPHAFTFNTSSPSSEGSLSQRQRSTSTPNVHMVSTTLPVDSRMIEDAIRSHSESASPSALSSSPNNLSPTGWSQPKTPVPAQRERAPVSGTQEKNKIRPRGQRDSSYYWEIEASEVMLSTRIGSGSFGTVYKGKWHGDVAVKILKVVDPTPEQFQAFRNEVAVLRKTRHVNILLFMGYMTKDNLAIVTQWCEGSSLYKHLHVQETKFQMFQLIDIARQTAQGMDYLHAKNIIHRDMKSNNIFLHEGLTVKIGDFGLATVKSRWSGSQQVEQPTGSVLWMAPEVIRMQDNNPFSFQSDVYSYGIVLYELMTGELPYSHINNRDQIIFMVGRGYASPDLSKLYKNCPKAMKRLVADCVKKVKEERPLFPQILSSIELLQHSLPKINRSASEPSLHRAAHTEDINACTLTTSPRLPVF
Experiment [8] has as its target Epidermal growth factor receptor (Homo sapiens) (UniProt P00533). The experiment in a line: Inhibition of EGFR (unknown origin) at 0.49 uM relative to control.
Experiment [9] deals with Mitogen-activated protein kinase 13 (Homo sapiens) (UniProt O15264). Description: Inhibition of p38-delta (unknown origin) at 0.45 uM relative to control.
Chain of Mitogen-activated protein kinase 13 (Homo sapiens) (O15264 whole entry): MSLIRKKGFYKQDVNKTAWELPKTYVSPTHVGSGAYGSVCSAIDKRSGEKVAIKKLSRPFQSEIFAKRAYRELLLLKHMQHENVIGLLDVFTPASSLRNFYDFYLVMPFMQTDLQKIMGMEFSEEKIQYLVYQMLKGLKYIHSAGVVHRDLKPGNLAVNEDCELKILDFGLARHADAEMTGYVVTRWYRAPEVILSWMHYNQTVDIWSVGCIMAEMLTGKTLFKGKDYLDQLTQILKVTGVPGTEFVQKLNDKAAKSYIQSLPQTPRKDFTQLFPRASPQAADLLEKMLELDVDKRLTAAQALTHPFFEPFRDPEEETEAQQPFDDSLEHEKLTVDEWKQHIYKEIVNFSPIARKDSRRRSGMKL
The test system of experiment [10] is Fibroblast growth factor receptor 4 (Homo sapiens), P22455 [V550L]. The experiment in a line: Inhibition of FGFR4 V550L mutant (unknown origin) at 0.45 uM relative to control.
Experiment [11] addresses T3, Interleukin-1 receptor-associated kinase 4 (Homo sapiens) (UniProt Q9NWZ3).
T3 sequence (whole entry): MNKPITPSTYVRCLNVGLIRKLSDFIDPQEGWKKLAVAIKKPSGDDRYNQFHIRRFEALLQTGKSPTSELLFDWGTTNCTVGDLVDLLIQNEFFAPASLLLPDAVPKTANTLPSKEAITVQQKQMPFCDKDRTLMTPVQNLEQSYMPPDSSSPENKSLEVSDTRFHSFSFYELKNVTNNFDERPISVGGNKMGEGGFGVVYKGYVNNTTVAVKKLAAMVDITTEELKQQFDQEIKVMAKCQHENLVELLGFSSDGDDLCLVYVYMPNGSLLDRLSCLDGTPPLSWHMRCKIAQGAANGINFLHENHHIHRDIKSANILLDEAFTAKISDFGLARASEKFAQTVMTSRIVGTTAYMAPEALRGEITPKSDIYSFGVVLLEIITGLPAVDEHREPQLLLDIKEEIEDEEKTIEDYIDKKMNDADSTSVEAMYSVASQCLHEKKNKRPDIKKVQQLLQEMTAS
The experiment in a line: Inhibition of IRAK4 (unknown origin) at 0.45 uM relative to control.

In experiment [12] the target is Phosphorylase b kinase gamma catalytic chain, liver/testis isoform (Homo sapiens) (UniProt P15735). The experiment in a line: Inhibition of PhKg2 (unknown origin) at 0.45 uM relative to control.
Chain of Phosphorylase b kinase gamma catalytic chain, liver/testis isoform (Homo sapiens) (P15735 whole entry, canonical isoform): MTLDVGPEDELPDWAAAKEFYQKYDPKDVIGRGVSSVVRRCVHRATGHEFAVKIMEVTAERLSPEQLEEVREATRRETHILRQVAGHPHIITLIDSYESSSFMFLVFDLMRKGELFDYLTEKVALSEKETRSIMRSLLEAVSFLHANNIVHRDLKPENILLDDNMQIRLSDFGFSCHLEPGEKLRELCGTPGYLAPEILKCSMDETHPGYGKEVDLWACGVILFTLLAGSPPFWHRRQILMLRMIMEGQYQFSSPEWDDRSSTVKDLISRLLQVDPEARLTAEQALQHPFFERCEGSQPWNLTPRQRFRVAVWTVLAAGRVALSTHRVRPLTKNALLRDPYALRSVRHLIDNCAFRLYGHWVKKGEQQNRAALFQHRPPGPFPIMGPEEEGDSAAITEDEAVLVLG
For experiment [13], the target named is T2, Serine/threonine-protein kinase 3 (Homo sapiens). The experiment in a line: Inhibition of MST2 (unknown origin) at 0.45 uM relative to control.

The inhibition is the drop in the measured response relative to a control, in per cent.

Chain of Ribosomal protein S6 kinase alpha-1 (Homo sapiens) (Q15418 whole entry): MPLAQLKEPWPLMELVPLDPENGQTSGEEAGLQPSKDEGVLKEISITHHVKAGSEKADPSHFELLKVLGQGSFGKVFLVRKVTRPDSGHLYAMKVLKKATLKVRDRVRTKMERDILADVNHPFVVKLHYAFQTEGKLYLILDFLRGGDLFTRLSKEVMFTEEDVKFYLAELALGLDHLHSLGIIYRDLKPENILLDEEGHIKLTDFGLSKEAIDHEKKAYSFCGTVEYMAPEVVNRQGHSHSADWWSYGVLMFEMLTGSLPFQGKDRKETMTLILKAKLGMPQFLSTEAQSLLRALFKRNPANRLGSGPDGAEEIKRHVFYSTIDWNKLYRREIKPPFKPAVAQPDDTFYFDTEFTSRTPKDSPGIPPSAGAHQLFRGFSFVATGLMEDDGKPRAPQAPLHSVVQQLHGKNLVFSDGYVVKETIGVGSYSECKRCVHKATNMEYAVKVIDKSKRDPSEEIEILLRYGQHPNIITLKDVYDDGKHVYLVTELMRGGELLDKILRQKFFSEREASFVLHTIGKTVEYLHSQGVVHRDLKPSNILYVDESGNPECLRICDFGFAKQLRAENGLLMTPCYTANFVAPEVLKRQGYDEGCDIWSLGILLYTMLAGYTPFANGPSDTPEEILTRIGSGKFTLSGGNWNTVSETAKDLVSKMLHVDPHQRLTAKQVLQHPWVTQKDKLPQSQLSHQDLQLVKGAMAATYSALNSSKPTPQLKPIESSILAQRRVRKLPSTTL
Chain of Epidermal growth factor receptor (Homo sapiens) (P00533 whole entry): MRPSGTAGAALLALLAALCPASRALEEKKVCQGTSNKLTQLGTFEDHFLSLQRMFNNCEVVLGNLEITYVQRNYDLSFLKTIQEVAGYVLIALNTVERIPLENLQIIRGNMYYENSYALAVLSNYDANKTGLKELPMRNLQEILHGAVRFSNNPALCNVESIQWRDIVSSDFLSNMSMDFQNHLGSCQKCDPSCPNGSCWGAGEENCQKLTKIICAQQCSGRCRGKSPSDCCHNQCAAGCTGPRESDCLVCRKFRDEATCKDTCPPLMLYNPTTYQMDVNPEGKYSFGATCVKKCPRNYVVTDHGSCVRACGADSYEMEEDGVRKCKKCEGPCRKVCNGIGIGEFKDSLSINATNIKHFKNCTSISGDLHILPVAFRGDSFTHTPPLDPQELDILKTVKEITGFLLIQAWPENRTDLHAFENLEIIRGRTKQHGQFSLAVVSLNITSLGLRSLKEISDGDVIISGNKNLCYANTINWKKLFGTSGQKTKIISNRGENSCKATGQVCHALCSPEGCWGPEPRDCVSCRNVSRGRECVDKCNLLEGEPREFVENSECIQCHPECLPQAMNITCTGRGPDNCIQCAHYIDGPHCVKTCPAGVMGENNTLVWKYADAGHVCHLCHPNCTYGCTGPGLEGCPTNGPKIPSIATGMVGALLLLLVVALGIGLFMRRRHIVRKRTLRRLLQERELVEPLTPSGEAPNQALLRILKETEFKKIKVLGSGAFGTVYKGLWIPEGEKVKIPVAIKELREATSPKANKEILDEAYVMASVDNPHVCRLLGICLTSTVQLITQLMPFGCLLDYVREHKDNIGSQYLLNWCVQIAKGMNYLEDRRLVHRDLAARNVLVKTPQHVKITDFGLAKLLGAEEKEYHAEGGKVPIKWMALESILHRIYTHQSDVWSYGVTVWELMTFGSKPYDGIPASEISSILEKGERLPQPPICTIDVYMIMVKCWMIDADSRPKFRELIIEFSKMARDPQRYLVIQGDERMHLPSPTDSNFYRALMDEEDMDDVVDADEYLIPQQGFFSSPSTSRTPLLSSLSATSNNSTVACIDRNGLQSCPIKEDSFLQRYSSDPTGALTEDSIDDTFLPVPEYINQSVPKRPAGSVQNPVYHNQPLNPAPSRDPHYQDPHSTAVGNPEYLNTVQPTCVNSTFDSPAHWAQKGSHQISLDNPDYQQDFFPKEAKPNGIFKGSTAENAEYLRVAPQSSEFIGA

`COC(=O)Nc1noc2cc(-c3c(-c4ccccn4)n[nH]c3C)ccc12`: the inhibition in experiment [1] is 0.3%; in experiment [2] it was -0.7%; in experiment [3], 2%.

On to `Cc1[nH]nc(C2CC2)c1-c1ccc2c(NC(=O)C3CC3)noc2c1`, for which the inhibition in experiment [4] was -2.7%; in [5], 1%; in experiment [6], 1.3%; in [7], 1%; in experiment [8], -7.3%.

Regarding `Cc1n[nH]c(C)c1-c1ccc2c(NC(=O)c3ccc(N4CCN(C)CC4)cc3)n[nH]c2c1`, the inhibition in experiment [9] was 4.3%; in experiment [10] it was 2.7%; in experiment [11], 11%; in [12] it was 1.7%; in [13], 1.7%.
